In the supplement of paper PMC10307832:

Key:
Assay in all cases: relative viability (nuclei count vs DMSO), 5 days (fraction); higher = more cells survive
Motesanib + Luminespib = compound: CC1(C)CNc2cc(NC(=O)c3cccnc3NCc3ccncc3)ccc21 [Motesanib] + CCNC(=O)c1noc(-c2cc(C(C)C)c(O)cc2O)c1-c1ccc(CN2CCOCC2)cc1 [Luminespib] (partner 0.01 µM)
How it was run: (§1)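 Lung cancer cell lines in 1536-well plates were dosed by pin tool the day after seeding, either with one drug alone or with a fixed anchor-drug dose plus five library-drug doses (not always all listed) in √10 steps. After 5 days, cells were fixed and their nuclei stained in one step (final 0.05% Triton X-100, 1% formaldehyde, 1 ug/ml Hoechst), then counted on 4× images. Relative viability is the nuclei count in treated wells divided by that in vehicle wells. Values are medians of duplicate plates.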

Motesanib + Phenformin = compound: CC1(C)CNc2cc(NC(=O)c3cccnc3NCc3ccncc3)ccc21 [Motesanib] + N=C(N)NC(=N)NCCc1ccccc1 [Phenformin] (partner 250 µM)
How it was run: as §1

[1] = compound: C[C@@]1(C(=O)Nc2ccc(F)nc2)CCCN1c1nc(Nc2cc(C3CC3)n[nH]2)c2cccn2n1 + CCNC(=O)c1noc(-c2cc(C(C)C)c(O)cc2O)c1-c1ccc(CN2CCOCC2)cc1 [Luminespib] (partner 0.01 µM)
How it was run: as §1

[2] = compound: C[C@@]1(C(=O)Nc2ccc(F)nc2)CCCN1c1nc(Nc2cc(C3CC3)n[nH]2)c2cccn2n1 + N=C(N)NC(=N)NCCc1ccccc1 [Phenformin] (partner 250 µM)
How it was run: as §1

UMC-11
relative viability (Motesanib + Luminespib; first compound 0.01 µM): 0.987 | relative viability (Motesanib + Luminespib; first compound 0.03162 µM): 1.07 | relative viability (Motesanib + Luminespib; first compound 0.1 µM): 0.927 | relative viability (Motesanib + Luminespib; first compound 0.3162 µM): 1.12 | relative viability (Motesanib + Luminespib; first compound 1 µM): 1.17 | relative viability (Motesanib + Phenformin; first compound 0.01 µM): 0.29 | relative viability (Motesanib + Phenformin; first compound 0.03162 µM): 0.33 | relative viability (Motesanib + Phenformin; first compound 0.1 µM): 0.324 | relative viability (Motesanib + Phenformin; first compound 0.3162 µM): 0.33 | relative viability (Motesanib + Phenformin; first compound 1 µM): 0.345 | relative viability ([1]; first compound 0.04 µM): 0.94 | relative viability ([1]; first compound 0.1265 µM): 1.01 | relative viability ([1]; first compound 0.4 µM): 0.968 | relative viability ([1]; first compound 1.265 µM): 0.726 | relative viability ([2]; first compound 0.04 µM): 0.341 | relative viability ([2]; first compound 0.1265 µM): 0.339 | relative viability ([2]; first compound 0.4 µM): 0.347 | relative viability ([2]; first compound 1.265 µM): 0.277
